# Reference: patent EP0168965B1, “4(5)-substituted imidazoles” (ELI LILLY AND COMPANY, priority 1984, dated 1986)
# Key:
# aromatase = target: T1, aromatase (Rattus norvegicus, UniProt P22443); assay: Aromatase inhibition in the rat ovarian microsome assay; format: biochemical; conditions: read-out: EC50 (the source's name)
# T1 construct: ovarian microsomes are obtained from rats treated with pregnant mares serum gonadotropin; from tissue; host or cells: rat ovarian microsomes (rats treated with pregnant mares serum gonadotropin)
# T1 sequence (P22443 1-508): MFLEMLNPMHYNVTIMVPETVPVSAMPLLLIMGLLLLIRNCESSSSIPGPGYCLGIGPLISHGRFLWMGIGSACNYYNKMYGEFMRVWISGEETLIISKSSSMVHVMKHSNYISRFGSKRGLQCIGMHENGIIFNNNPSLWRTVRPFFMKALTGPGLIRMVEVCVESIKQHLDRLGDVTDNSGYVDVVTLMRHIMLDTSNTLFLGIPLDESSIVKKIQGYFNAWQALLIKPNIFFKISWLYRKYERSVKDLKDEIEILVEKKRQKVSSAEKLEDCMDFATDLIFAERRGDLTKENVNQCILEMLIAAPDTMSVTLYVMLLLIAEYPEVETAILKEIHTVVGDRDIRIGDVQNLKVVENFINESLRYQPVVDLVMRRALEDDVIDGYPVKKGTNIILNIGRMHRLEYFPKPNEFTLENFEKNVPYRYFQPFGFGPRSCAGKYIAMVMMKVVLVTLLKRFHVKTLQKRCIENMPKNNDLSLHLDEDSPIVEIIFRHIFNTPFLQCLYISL
# Description: In this test system, ovarian microsomes are obtained from rats treated with pregnant mares serum gonadotropin. Test compounds are added to reaction vials containing 0.1 µM 4-androstene-3,17-dione, 100,000 dpm 1,2[^3H]-androstenedione, the microsomes and a NADPH generating system. The concentrations of the inhibitors tested ranged between 0.005 and 10 um.
# synthesis of estrogens = assay: Estrogen synthesis inhibition in rats (uterine weight and ovarian steroid concentrations); format: in vivo, Immature female Wistar rats; conditions: for Mean Steroid Concentration estradiol / Mean Steroid Concentration estriol / Mean Steroid Concentration estrone: ovaries
# Description: Immature female Wistar rats (45-55 grams) were divided into control and test groups of 4-5 animals each. Test compounds were administered for seven days daily by gavage in corn oil. Control animals received corn oil without the test compound. Beginning on the fourth day of the test, all animals treated with the test compound and one half of the control animals were given a subcutaneous injection of 1.0 mg of testosterone propionate in corn oil. The remaining control animals received only an equivalent volume of corn oil. On the seventh day of the test, rats treated with testosterone propionate were injected subcutaneously with 100 µCi of [^3H]-testosterone in 50 pl of 3:1 (v/v) saline-ethanol.
# After two hours, the animals were killed by decapitation. Uteri were isolated, trimmed of extraneous connective tissue, and weighed. […] In the control animals treated with testosterone propionate, estrogens produced by aromatization stimulated the uterus resulting in an increase in weight.
# Ovaries from rats treated with [^3H]-testosterone were excised, cleaned of extraneous tissue, and homogenized in 2.5 ml of a 1.0 mM potassium phosphate buffer containing 3.0 mM MgC12-6H20, 320 mM sucrose, and 0.25% Triton X-100 (polyethylene glycol p-isooctyl phenyl ether, Rohm and Haas) at pH 6.5. The ovarian steroids were extracted with 1.5 ml of 9:1 (v/v) toluene/ethanol to which had been added 25 to 100 mcg each of unlabelled estradiol, estriol, and estrone, and approximately 1000 dpm of [^14C]-estradiol. The samples were vortexed, centrifuged at 500 x g for 10 minutes, and the organic phase was transferred to a conical vial. Two additional extractions were performed on the residue in the same way. The pooled organic extracts were evaporated for subsequent thin-layer chromatography.
# Ovarian proteins were precipitated by the addition of 5.0 ml of ethanol to the remaining aqueous phase. After an overnight incubation at 4°C, the samples were centrifuged at 1500 x g for 10 minutes. The supernatant was discarded and the pellet was dissolved in 0.3 N potassium hydroxide. Protein was determined according to the method of Bradford, Analytical Biochemistry, 72, 248 (1976).
# The organic residue from each above extraction was redissolved in 9:1 (v/v) dichioromethane/ methanol. The solution of each sample was applied to separate silica gel thin layer chromatography plates which contained a fluorescent indicator. The plates were developed in the first dimension with 160:38:1.5:0.5 (v/v/v/v) dichloromethane/ethyl acetate/methanol/acetic acid to within 3 cm of the top of the plate. After air-drying, the plate was developed in the second dimension with 180:19:1 (v/v/v) dichloromethane/methanol/ammonium hydroxide. The plate was air-dried and viewed under 254 nm UV light.
# The visible spots were marked and the plates were sprayed with primulin (0.001% in 4:1 v/v acetone/ water) according to the method of Wright, J. Chromatography, '59, 220 (1971) which allowed for the identification of additional steroids under 365 nm UV light. The spots were scraped from the plate using a glass wool plugged Pasteur pipet attached to a vacuum line. The steroids were eluted directly into scintillation vials by the addition of 0.2 ml of dichloromethane followed by two washes each of 2.0 ml of methanol. The organic solvent was evaporated and 10.0 ml of scintillation fluid (Beckman Ready Solv-NA) was added to the vials. Samples were analyzed by liquid scintillation spectrometry. Corrections were made based on the recoveries of the [^14C]-steroid. Steroid concentrations are expressed as femtomoles per milligram protein.
# [1] = 1 mg/kg p.o. by gavage daily for seven days
# [2] = 3 mg/kg p.o. by gavage daily for seven days
# [3] = 10 mg/kg p.o. by gavage daily for seven days
# [4] = 30 mg/kg p.o. by gavage daily for seven days
# [5] = 100 mg/kg p.o. by gavage daily for seven days
structure (smiles),measurement,setting,value
"Fc1ccc(C(c2ccc(F)cc2)c2c[nH]cn2)cc1 [Example 1, 4(5)-[Bis(4-fluorophenyl)methyl]-1H-imidazole]",IC50,aromatase,< 50 nM
"Fc1ccc(C(c2ccc(Cl)cc2)c2c[nH]cn2)cc1 (stereo not shown) [Example 2, 4(5)-[(4-Chlorophenyl)(4-fluorophenyl)methyl]imidazole]",IC50,aromatase,< 50 nM
"OC(c1ccc(Cl)cc1)(c1ccc(Cl)cc1)c1c[nH]cn1 [Example 3, a,a-bis(4-chlorophenyl)-4(5)-imidazolemethanol]",Mean Steroid Concentration estradiol,synthesis of estrogens; [1],0.35 femtomoles per milligram of protein
same,Mean Steroid Concentration estriol,synthesis of estrogens; [1],0.132 femtomoles per milligram of protein
same,Mean Steroid Concentration estrone,synthesis of estrogens; [1],0.00 femtomoles per milligram of protein
same,Mean Uterine Weight,"synthesis of estrogens; 1 mg/kg p.o. by gavage daily for seven days, testosterone propionate-treated rats",214.2 mg
same,Mean Steroid Concentration estradiol,synthesis of estrogens; [2],0.31 femtomoles per milligram of protein
same,Mean Steroid Concentration estriol,synthesis of estrogens; [2],0.383 femtomoles per milligram of protein
same,Mean Steroid Concentration estrone,synthesis of estrogens; [2],0.05 femtomoles per milligram of protein
same,Mean Uterine Weight (mg),"synthesis of estrogens; 3 mg/kg p.o. by gavage daily for seven days, testosterone propionate-treated rats",158.8^+ mg
same,Mean Steroid Concentration estradiol,synthesis of estrogens; [3],0.19^+ femtomoles per milligram of protein
same,Mean Steroid Concentration estriol,synthesis of estrogens; [3],0.218 femtomoles per milligram of protein
same,Mean Steroid Concentration estrone,synthesis of estrogens; [3],0.03 femtomoles per milligram of protein
same,Mean Uterine Weight (mg),"synthesis of estrogens; 10 mg/kg p.o. by gavage daily for seven days, testosterone propionate-treated rats",131.2^+ mg
same,Mean Steroid Concentration estradiol,synthesis of estrogens; [4],0.22 femtomoles per milligram of protein
same,Mean Steroid Concentration estriol,synthesis of estrogens; [4],0.391 femtomoles per milligram of protein
same,Mean Steroid Concentration estrone,synthesis of estrogens; [4],0.07 femtomoles per milligram of protein
same,Mean Uterine Weight (mg),"synthesis of estrogens; 30 mg/kg p.o. by gavage daily for seven days, testosterone propionate-treated rats",96.2^+ mg
same,Mean Steroid Concentration estradiol,synthesis of estrogens; [5],0.10^+ femtomoles per milligram of protein
same,Mean Steroid Concentration estriol,synthesis of estrogens; [5],0.534^+ femtomoles per milligram of protein
same,Mean Steroid Concentration estrone,synthesis of estrogens; [5],0.36^+ femtomoles per milligram of protein
same,Mean Uterine Weight (mg),"synthesis of estrogens; 100 mg/kg p.o. by gavage daily for seven days, testosterone propionate-treated rats",79.5^+ mg
